The source of these data is ChEMBL document CHEMBL1150269, “Structural origin of selectivity in class II-selective histone deacetylase inhibitors” (J Med Chem, 2008).

In general, Ki refers to the dissociation constant of the complex between target and ligand, obtained from inhibition or displacement.

For test [1], the target named is Histone deacetylase 9 (Homo sapiens, UniProt Q9UKV0). The test can be described thus: Inhibition of HDAC9.
The target in test [2] is T1, Protein deacetylase HDAC6 (Homo sapiens, UniProt Q9UBN7).
T1 sequence (Q9UBN7 whole entry): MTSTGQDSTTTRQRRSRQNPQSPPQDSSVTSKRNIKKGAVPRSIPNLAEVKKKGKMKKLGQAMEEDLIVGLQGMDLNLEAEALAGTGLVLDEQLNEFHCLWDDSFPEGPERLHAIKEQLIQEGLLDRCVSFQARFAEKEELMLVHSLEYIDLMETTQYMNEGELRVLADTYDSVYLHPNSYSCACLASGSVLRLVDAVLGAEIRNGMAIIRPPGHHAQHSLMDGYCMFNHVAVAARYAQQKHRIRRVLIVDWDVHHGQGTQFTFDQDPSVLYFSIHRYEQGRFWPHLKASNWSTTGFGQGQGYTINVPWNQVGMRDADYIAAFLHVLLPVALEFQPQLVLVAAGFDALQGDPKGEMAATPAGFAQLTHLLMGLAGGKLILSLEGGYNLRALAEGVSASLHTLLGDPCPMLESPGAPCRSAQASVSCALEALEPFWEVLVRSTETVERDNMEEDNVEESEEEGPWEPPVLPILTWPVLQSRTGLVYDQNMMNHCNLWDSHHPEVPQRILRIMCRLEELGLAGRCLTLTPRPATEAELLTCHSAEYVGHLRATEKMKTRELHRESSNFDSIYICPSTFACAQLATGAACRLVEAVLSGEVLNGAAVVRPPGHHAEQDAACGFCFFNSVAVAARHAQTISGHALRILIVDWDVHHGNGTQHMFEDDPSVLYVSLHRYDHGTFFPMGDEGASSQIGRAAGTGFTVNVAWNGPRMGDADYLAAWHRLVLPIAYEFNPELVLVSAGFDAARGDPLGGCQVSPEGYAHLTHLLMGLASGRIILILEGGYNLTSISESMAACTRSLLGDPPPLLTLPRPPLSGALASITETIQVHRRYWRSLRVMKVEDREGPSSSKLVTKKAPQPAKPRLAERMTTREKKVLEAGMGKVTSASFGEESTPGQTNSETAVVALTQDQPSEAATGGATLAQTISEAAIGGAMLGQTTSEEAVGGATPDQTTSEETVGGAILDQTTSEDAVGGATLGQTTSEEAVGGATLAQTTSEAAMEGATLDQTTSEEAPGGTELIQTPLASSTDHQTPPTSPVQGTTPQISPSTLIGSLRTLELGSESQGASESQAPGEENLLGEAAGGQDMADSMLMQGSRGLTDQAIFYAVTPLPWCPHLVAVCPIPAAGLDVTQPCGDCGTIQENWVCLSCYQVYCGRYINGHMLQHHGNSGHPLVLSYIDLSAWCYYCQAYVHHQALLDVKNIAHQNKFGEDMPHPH
As to the kind of experiment: Inhibition of HDAC6.

For test [3], the target named is Histone deacetylase 1 (Homo sapiens, UniProt Q13547). As to the kind of experiment: Inhibition of HDAC1.
Sequence of Histone deacetylase 1 (Q13547 whole entry): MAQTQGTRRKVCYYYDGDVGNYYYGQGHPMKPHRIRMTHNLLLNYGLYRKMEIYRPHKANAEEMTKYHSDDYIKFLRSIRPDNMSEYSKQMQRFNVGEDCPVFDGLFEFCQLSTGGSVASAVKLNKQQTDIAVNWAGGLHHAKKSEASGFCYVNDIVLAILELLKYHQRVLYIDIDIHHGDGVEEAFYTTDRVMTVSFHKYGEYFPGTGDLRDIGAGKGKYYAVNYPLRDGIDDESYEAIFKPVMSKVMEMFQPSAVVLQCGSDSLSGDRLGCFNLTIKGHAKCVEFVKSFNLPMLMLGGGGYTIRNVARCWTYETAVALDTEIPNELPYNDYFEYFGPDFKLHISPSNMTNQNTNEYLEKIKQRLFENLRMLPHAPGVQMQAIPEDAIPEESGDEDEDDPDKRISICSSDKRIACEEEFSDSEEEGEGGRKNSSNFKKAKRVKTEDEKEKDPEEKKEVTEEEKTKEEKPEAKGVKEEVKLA

Sequence of Histone deacetylase 9 (Q9UKV0 whole entry): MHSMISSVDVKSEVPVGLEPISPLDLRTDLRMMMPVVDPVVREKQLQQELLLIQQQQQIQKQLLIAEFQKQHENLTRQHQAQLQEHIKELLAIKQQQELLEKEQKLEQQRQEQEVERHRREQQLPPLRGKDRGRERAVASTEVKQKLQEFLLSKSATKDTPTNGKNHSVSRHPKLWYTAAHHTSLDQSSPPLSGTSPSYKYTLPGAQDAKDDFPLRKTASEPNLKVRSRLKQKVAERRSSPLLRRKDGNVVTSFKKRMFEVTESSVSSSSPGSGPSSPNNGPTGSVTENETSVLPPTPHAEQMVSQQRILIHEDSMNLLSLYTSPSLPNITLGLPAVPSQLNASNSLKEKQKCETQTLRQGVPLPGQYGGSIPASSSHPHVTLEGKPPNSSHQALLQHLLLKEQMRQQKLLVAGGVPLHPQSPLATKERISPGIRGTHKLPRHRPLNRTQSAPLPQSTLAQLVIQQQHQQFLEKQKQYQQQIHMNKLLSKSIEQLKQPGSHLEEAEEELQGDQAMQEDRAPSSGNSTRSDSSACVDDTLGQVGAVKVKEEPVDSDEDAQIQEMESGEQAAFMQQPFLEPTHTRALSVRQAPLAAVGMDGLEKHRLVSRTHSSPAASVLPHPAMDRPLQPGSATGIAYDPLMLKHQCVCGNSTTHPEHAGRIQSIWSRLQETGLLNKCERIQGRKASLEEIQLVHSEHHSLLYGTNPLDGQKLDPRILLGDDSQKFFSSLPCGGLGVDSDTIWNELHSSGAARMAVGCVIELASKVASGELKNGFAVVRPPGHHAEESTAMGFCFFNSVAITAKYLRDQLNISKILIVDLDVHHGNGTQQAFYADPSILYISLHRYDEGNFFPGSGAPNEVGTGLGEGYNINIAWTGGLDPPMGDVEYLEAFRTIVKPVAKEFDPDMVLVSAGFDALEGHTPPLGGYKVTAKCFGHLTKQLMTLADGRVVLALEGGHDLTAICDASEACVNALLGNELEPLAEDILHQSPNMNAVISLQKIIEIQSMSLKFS

In the case of `O=C(CCCCCCC(=O)Nc1ccc([C@H]2O[C@@H](CSc3ccncc3)C[C@@H](c3ccccc3)O2)cc1)NO`, the values for the Ki in test [1], in test [2] and in test [3] were 6100 nM, 28 nM and 88 nM, respectively.
